Experimental data reported in DBAASP.
≈ marks a conversion by molar mass, not a printed value. Where “and” joins values, the source holds several entries; their conditions need not be identical. Identical values can stand only once. Each block holds one compound with its values, some of them ahead of it.

Columns and labels:
Assay in all cases: ≥ marks a high value that may be exact or a test limit, other limits are often not marked, values filed in µg/mL are converted to µM
[1] = system: Micrococcus luteus NBRC 3333
[2] = system: Aspergillus oryzae NBRC 100959
[3] = system: Escherichia coli NBRC 3972
[4] = system: Pseudomonas putida NBRC 100650
[5] = system: Staphylococcus epidermidis NBRC 12993
[6] = system: Candida viswanathii NBRC 10321
[7] = system: Escherichia coli ATCC 25922
[8] = system: Bacillus subtilis ATCC 6633
[9] = system: Staphylococcus aureus ATCC 25923
[10] = system: Candida albicans 08030401
[11] = system: Candida albicans ATCC 2002
[12] = system: Candida albicans 08032815
[13] = system: Candida albicans ATCC 10231
Staphylococcus aureus MR = system: Staphylococcus aureus MR
[14] = system: Staphylococcus aureus 725
[15] = system: Staphylococcus aureus 113
[16] = system: Staphylococcus aureus 936
[17] = system: Staphylococcus aureus 794
[18] = system: Staphylococcus aureus ATCC 33591
[19] = system: Staphylococcus aureus ATCC 6538
[20] = system: Listeria monocytogenes ATCC 19115
[21] = system: Salmonella enterica subsp. enterica serovar Typhimurium ATCC 14028
[22] = system: Bacillus subtilis CMCC 63501
[23] = system: Escherichia coli CICC 10670
[24] = system: Pseudomonas aeruginosa BNCC 125486
[25] = system: Staphylococcus aureus BNCC 186335
Bacillus subtilis = system: Bacillus subtilis
[26] = system: Escherichia coli BNCC 133264
Candida albicans SC5314 = system: Candida albicans SC5314
Staphylococcus aureus = system: Staphylococcus aureus
Escherichia coli = system: Escherichia coli
Listeria monocytogenes = system: Listeria monocytogenes
[27] = system: Staphylococcus aureus ATCC 2592
[28] = system: Staphylococcus aureus AB6538
[29] = system: Pseudomonas aeruginosa ATCC 27853
Escherichia coli AB94012 = system: Escherichia coli AB94012
[30] = system: Pseudomonas aeruginosa ATCC 9027
[31] = system: Escherichia coli ATCC 11229
[32] = system: Staphylococcus epidermidis ATCC 12228
[33] = system: Klebsiella pneumoniae ATCC 13866
[34] = system: Staphylococcus aureus ATCC 29213
[35] = system: Salmonella enterica serovar Typhimurium
[36] = system: Escherichia coli ATCC 35218
[37] = system: Acinetobacter baumannii ATCC 19606
[38] = system: Pseudomonas aeruginosa ATCC 47085
[39] = system: Staphylococcus aureus ATCC 35556
[40] = system: Escherichia coli D31 CGSC 5165

MIC [1]: ≥ 129 µM | MIC [2]: ≥ 129 µM | MIC [3]: ≥ 64.6 µM | MIC [4]: ≥ 258 µM | MIC [5]: ≥ 64.6 µM | MIC [6]: ≥ 258 µM
SMILES: CC[C@H](C)[C@H](NC(=O)[C@H](CCCCN)NC(=O)[C@@H](N)CCCN=C(N)N)C(=O)N[C@@H](CCCCN)C(=O)N[C@@H](CCCN=C(N)N)C(=O)N[C@@H](Cc1ccc(O)cc1)C(=O)N[C@@H](CC(C)C)C(=O)N[C@@H](CCCN=C(N)N)C(=O)N[C@@H](CCCN=C(N)N)C(=O)N[C@@H](CCSC)C(=O)N[C@@H](CCCCN)C(=O)O [RKIKRYLRRMK]

MIC [7]: 26.4 µM (≈ 37.5 µg/mL) | MIC [8]: 26.4 µM (≈ 37.5 µg/mL) | MIC [9]: 26.4 µM (≈ 37.5 µg/mL) | MIC [10]: 13 µM (≈ 18.5 µg/mL) | MIC [11]: 13 µM (≈ 18.5 µg/mL) | MIC [12]: 13 µM (≈ 18.5 µg/mL) | MIC [13]: 13 µM (≈ 18.5 µg/mL)
SMILES: NCCCC[C@H](NC(=O)[C@H](CCCCN)NC(=O)[C@H](Cc1c[nH]c2ccccc12)NC(=O)[C@H](Cc1c[nH]c2ccccc12)NC(=O)[C@H](CCCCN)NC(=O)[C@H](Cc1ccccc1)NC(=O)[C@H](CCCN=C(N)N)NC(=O)[C@H](Cc1c[nH]c2ccccc12)NC(=O)[C@@H](N)CCCN=C(N)N)C(=O)O [RWRFKWWKK]

MIC (Staphylococcus aureus MR): 4.24 µM (≈ 8 µg/mL) | MIC [14]: 4.24 µM (≈ 8 µg/mL) | MIC [9]: 2.12 µM and 4.24 µM | MIC [15]: 4.24 µM (≈ 8 µg/mL) | MIC [16]: 4.24 µM (≈ 8 µg/mL) | MIC [17]: 4.24 µM (≈ 8 µg/mL) | MIC [18]: 4.24 µM (≈ 8 µg/mL)
SMILES: CC(C)C[C@H](NC(=O)[C@@H](NC(=O)[C@H](CCCCN)NC(=O)[C@H](CCCCN)NC(=O)[C@H](Cc1c[nH]c2ccccc12)NC(=O)[C@H](CC(C)C)NC(=O)[C@H](CCCN=C(N)N)NC(=O)[C@H](CC(C)C)NC(=O)[C@H](C)NC(=O)[C@H](CCCCN)NC(=O)CNC(=O)[C@H](CC(C)C)NC(=O)[C@H](CC(C)C)NC(=O)[C@H](CO)NC(=O)CNC(=O)[C@H](Cc1ccccc1)NC(=O)CN)C(C)C)C(N)=O [GFGSLLGKALRLWKKVL]

MIC [19]: 2.5 µM (≈ 4.72 µg/mL) | MIC [20]: 2.5 µM (≈ 4.72 µg/mL) | MIC [21]: 5 µM (≈ 9.44 µg/mL) | MIC [22]: 5 µM (≈ 9.44 µg/mL) | MIC [23]: 2.5 µM (≈ 4.72 µg/mL)
SMILES: CC[C@H](C)[C@H](NC(=O)CN)C(=O)N[C@H](C(=O)N[C@@H](CC(=O)O)C(=O)N[C@@H](CC(C)C)C(=O)N[C@@H](CCCN=C(N)N)C(=O)NCC(=O)N[C@@H](CCSC)C(=O)N[C@@H](CC(C)C)C(=O)N[C@@H](CCCCN)C(=O)N[C@@H](CCCN=C(N)N)C(=O)N[C@@H](CC(C)C)C(=O)N[C@@H](CCCCN)C(=O)N[C@@H](CCCCN)C(=O)N[C@@H](CCSC)C(=O)N[C@@H](CCCCN)C(=O)O)[C@@H](C)O [GITDLRGMLKRLKKMK]

MIC [24]: 3.93 µM (≈ 8 µg/mL) | MIC [7]: 4.6 µM (≈ 9.35 µg/mL) | MIC [25]: 1.97 µM (≈ 4 µg/mL) | MIC (Bacillus subtilis): 9.2 µM (≈ 18.7 µg/mL) | MIC [26]: 0.984 µM (≈ 2 µg/mL) | MIC (Candida albicans SC5314): 4.6 µM (≈ 9.35 µg/mL) | MIC (Staphylococcus aureus): 3.93 µM (≈ 8 µg/mL) | MIC (Escherichia coli): 7.87 µM (≈ 16 µg/mL) | MIC (Listeria monocytogenes): 7.87 µM (≈ 16 µg/mL) | MIC [27]: 9.2 µM (≈ 18.7 µg/mL)
SMILES: CC(C)[C@H](N)C(=O)N[C@@H](CCCCN)C(=O)N[C@@H](CCCN=C(N)N)C(=O)N[C@@H](Cc1ccccc1)C(=O)N[C@@H](CCCCN)C(=O)N[C@@H](CCCCN)C(=O)N[C@@H](Cc1ccccc1)C(=O)N[C@@H](Cc1ccccc1)C(=O)N[C@@H](CCCN=C(N)N)C(=O)N[C@@H](CCCCN)C(=O)N[C@@H](Cc1ccccc1)C(=O)N[C@@H](CCCCN)C(=O)N[C@@H](CCCCN)C(=O)N[C@@H](Cc1ccccc1)C(=O)N[C@H](C(N)=O)C(C)C [VKRFKKFFRKFKKFV]

MIC [7]: 12.7 µM (≈ 25 µg/mL) | MIC [28]: 3.17 µM (≈ 6.25 µg/mL) | MIC [29]: 12.7 µM (≈ 25 µg/mL) | MIC (Escherichia coli AB94012): 6.34 µM (≈ 12.5 µg/mL) | MIC [30]: 12.7 µM and 25.4 µM
SMILES: CC[C@H](C)[C@H](NC(=O)[C@H](CCCCN)NC(=O)[C@@H]1CCCN1C(=O)[C@H](CC(C)C)NC(=O)[C@@H](NC(=O)[C@H](CCCCN)NC(=O)CNC(=O)[C@H](CC(C)C)NC(=O)[C@@H](NC(=O)[C@H](CCCCN)NC(=O)CNC(=O)[C@H](CC(C)C)NC(=O)[C@H](CC(C)C)NC(=O)CNC(=O)[C@H](CC(C)C)NC(=O)[C@@H](N)Cc1ccccc1)C(C)C)C(C)C)C(=O)N[C@@H](Cc1ccccc1)C(=O)N[C@@H](CCCCN)C(N)=O [FLGLLGKVLGKVLPKIFK]

MIC [31]: 12.9 µM (≈ 16 µg/mL) | MIC [32]: 12.9 µM (≈ 16 µg/mL) | MIC [29]: 12.9 µM (≈ 16 µg/mL) | MIC [33]: 25.9 µM (≈ 32 µg/mL) | MIC [34]: 104 µM (≈ 128 µg/mL) | MIC [18]: ≥ 104 µM | MIC [35]: ≥ 104 µM | MIC [36]: ≥ 104 µM
SMILES: CC[C@H](C)[C@H](NC(=O)[C@H](CCCN=C(N)N)NC(=O)[C@@H](N)CCSC)C(=O)NCC(=O)N[C@@H](CC(C)C)C(=O)N[C@@H](CCCN=C(N)N)C(=O)N[C@@H](Cc1ccccc1)C(=O)N[C@H](C(=O)N[C@@H](CC(C)C)C(=O)N[C@@H](CCSC)C(=O)O)C(C)C [MRIGLRFVLM]

SMILES: CC[C@H](C)[C@H](NC(=O)[C@H](CCCCN)NC(=O)CNC(=O)[C@H](CC(C)C)NC(=O)[C@@H](NC(=O)[C@H](C)NC(=O)[C@H](CCCCN)NC(=O)CNC(=O)[C@H](C)NC(=O)CNC(=O)[C@H](CCCCN)NC(=O)[C@H](CCSC)NC(=O)[C@H](CCCCN)NC(=O)[C@@H](NC(=O)[C@H](Cc1c[nH]c2ccccc12)NC(=O)[C@H](CC(C)C)NC(=O)[C@H](CCC(=O)O)NC(=O)[C@H](CCCCN)NC(=O)[C@H](CC(C)C)NC(=O)[C@@H](N)CC(C)C)[C@@H](C)O)C(C)C)C(=O)N[C@@H](CCCCN)C(=O)NCC(=O)N[C@@H](CC(C)C)C(=O)N[C@@H](CC(C)C)C(=O)O [LLKELWTKMKGAGKAVLGKIKGLL]
MIC [37]: 1 µM (≈ 2.6 µg/mL) | MIC [38]: 15 µM (≈ 38.9 µg/mL) | MIC [39]: 15 µM (≈ 38.9 µg/mL) | MIC [40]: 0.94 µM (≈ 2.44 µg/mL)
